The values below come from US20110319392A1, “Thiazole Sulfonamide And Oxazole Sulfonamide Kinase Inhibitors” (priority 2009, published 2011).

In general, IC50 refers to the concentration that gives 50% inhibition. Low readings indicate inhibition by little substance, high ones a need for much substance.

Molecules are shown by their SMILES.

One assay has as its system BT474 tumor cells. Nature of the assay: Cell growth inhibition assay (CellTiter-Glo), BT474. Conditions: Homo sapiens, BT-474, 72 h, 3 days incubation. It counts as cell-based, Human. On the procedure: (§1) Human breast tumor cells (BT474) were cultured in RPMI (Mediatech […]), containing 10% FBS (JRH Biosciences 12176) and 1% penicillin-streptomycin (Invitrogen 15140). Human head and neck tumor cells (HN5) were cultured in high glucose DMEM (Mediatech 50-013-PB) containing 10% FBS and 1% penicillin-streptomycin. Human colon tumor cells (Colo205) were cultured in RPMI (Mediatech 50-020-PB) containing 10% FBS and 1% penicillin-streptomycin. Human melanoma cancer cells (SK-MEL-28) were cultured in EMEM with nonessential amino acids (Mediatech 50-011-PB) containing 10% FBS, 1% sodium pyruvate (JT Baker 3354-04), and 1% penicillin-streptomycin. Human melanoma cancer cells (A375P F11s) were cultured in RPMI (Mediatech 50-020-PB) containing 10% FBS, 1% sodium pyruvate, and 1% penicillin-streptomycin. Human colon cancer cells (HT-29) were cultured in high glucose DMEM (Mediatech 50-013-PB) containing 10% FBS and 1% penicillin-streptomycin. Human melanoma cancer cells (SK-MEL-3) were cultured in McCoy's 5A (50-025-PB) containing 15% FBS, and 1% penicillin-streptomycin. All cell lines were maintained at 37° C. in a humidified 5% CO2, 95% air incubator. Cells were harvested using trypsin/EDTA (Invitrogen 25200), counted using a haemocytometer, and plated. For 96-well assays (using white full-area NUNC plates cat. #136102), cells were plated in 105 μL at the following densities (cells/well): HNS, 500; Colo 205, 500; SK-MEL-28, 500; A375P F11s, 500; HT-29, 500; SK-MEL-3, 500; and BT474, 3000. For 384-well assays (white full-area NUNC plates, cat. #781080), cells were plated in 48 μL at the following densities (cells/well): HNS, 500; Colo205, 500; SK-MEL-28, 500; A375P F11s, 500; HT-29, 500; SK-MEL-3, 500; and BT474, 2000.
(§2) The next day, compounds were diluted as follow: For 96-well assays, 13.5 μL of compound in DMSO were diluted using nine (9) serial 1:3 dilutions of 4.5 μL in 9 of DMSO. Medium (270 μL/well of RPMI with 10% FBS and 1% penicillin-streptomycin) was added to the plates. Aliquots (7 μL) were added to cells in the final assay giving a final DMSO concentration of 0.2%. For 384-well assays, 15 μL of compound in DMSO were diluted using nine (9) serial 1:3 dilutions of 5 μL in 10 μL of DMSO, followed by a further dilution of 5 μL of compound with 95 μL of medium, of which 2 μL were added to cells in the final assay giving a final DMSO concentration of 0.2%. Cells were incubated at 37° C., 5% CO2 for 3 days.
(§3) Total ATP was measured (as a surrogate estimate of cell number) using CellTiter-Glo® reagent (Promega G7571). Briefly, plates were removed from the incubator and allowed to equilibrate to room temperature for 30 minutes. CellTiter-Glo® (25 μL or 55 μL for 384-well or 96-well assays, respectively) reagent was added to each well and plates were shaken on an orbital plate shaker for 2 minutes. Plates were incubated without shaking for a further 30 minutes and read on an LJL Analyst GT reader in luminometer mode with an integration time of 0.5 seconds per well. Percent inhibition of cell growth was calculated relative to DMSO vehicle-treated control wells. Concentration of compound required to give 50% inhibition of vehicle-treated control cell growth (IC50) was interpolated using a 4-parameter fit for determining IC50 using the following equation: Y=A +((B−A)/(1+((C/X)̂D))) where […].
For orientation: In ATP-based viability assays light output follows the ATP content of the culture.

In a further assay the test system is SK-MEL-28 tumor cells. The experiment in a line: Cell growth inhibition assay (CellTiter-Glo), SK-MEL-28. Conditions: Homo sapiens, SK-MEL-28, 72 h; 3 days incubation. Format: cell-based, Human. An outline of the steps:
(§4)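 Readout was CellTiter-Glo luminescence (total ATP, surrogate for cell number) after 3-day exposure at 37° C, 5% CO2 to 1:3 serial compound dilutions in 0.2% final DMSO. Seeding was 500 cells/well; IC50 derived by 4-parameter fit relative to vehicle-treated wells.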

For a further assay, the target named is B-Raf (Homo sapiens, UniProt P15056). Nature of the assay: B-Raf Accelerated MEK ATPase assay (BRAMA), Method A or B. It counts as biochemical. To be noted: Method B: final MEK 150 nM, single end point read. In short, it runs like this: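 ADP production, initiated by catalytic activated Raf with unphosphorylated MEK, is followed by NADH oxidation through a PK/LDH coupled system. Method B differs from the kinetic Method A by a single end-point read and 150 nM final MEK.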
B-Raf, sequence (P15056 whole entry): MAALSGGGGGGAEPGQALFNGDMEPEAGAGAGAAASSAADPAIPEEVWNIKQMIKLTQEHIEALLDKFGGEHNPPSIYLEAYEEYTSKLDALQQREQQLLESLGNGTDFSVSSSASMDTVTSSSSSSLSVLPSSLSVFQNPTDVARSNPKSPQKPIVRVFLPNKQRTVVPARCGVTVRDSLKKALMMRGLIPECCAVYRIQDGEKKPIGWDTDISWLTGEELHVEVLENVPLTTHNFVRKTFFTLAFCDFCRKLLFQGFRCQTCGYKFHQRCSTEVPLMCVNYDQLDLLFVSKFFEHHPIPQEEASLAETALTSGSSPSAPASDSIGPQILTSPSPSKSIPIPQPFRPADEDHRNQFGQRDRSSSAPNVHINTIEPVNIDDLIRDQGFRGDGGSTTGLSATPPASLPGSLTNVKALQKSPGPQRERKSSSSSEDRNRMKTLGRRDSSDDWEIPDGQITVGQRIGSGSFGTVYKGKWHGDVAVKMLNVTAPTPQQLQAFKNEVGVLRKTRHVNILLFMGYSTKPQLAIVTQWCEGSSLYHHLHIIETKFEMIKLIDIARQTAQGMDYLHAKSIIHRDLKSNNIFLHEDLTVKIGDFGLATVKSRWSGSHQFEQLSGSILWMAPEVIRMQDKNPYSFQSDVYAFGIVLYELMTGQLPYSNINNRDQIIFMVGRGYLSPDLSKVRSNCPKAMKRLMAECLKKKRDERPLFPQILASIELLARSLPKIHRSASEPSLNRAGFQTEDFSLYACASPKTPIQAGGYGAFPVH

The test system of the next assay is A375P F11s tumor cells. Nature of the assay: Cell growth inhibition assay (CellTiter-Glo), A375P F11s. It counts as cell-based, Human. To be noted: for IC50: Homo sapiens. On the procedure: as §1, §2, §3
Another assay relates to Colo205 tumor cells. Nature of the assay: Cell growth inhibition assay (CellTiter-Glo), Colo205. To be noted: Homo sapiens, COLO 205, 72 h; 3 days incubation. Format: cell-based, Human. In short, it runs like this:
as §4

The next assay relates to HN5 tumor cells. The experiment in a line: Cell growth inhibition assay (CellTiter-Glo), HN5. It counts as cell-based, Human. Conditions: Homo sapiens, 72 h; 3 days incubation. Here is the method:
as §1, §2, §3

Another assay concerns HT-29 tumor cells. The experiment in a line: Cell growth inhibition assay (CellTiter-Glo), HT-29. Format: cell-based, Human. Conditions: Homo sapiens. On the procedure:
as §1, §2, §3

For another assay, the system named is SK-MEL-3 tumor cells. Nature of the assay: Cell growth inhibition assay (CellTiter-Glo), SK-MEL-3. It counts as cell-based, Human. To be noted: for IC50: Homo sapiens, SK-MEL3. Here is the method:
as §1, §2, §3

With `CC(C)c1nc(-c2cc(F)c(F)c(NS(=O)(=O)c3cccc(F)c3)c2)c(-c2ccnc(Nc3ccc(N4CCN(CCF)CC4)c(F)c3)n2)s1` [Example 101], the half-inhibitory concentration (IC50) in the assay with BT474 tumor cells is > 1000 nM; in the assay on SK-MEL-28 tumor cells, 100 to 1000 nM; against B-Raf it was < 100 nM; in the assay with A375P F11s tumor cells, 100 to 1000 nM; with Colo205 tumor cells, 100 to 1000 nM; in the assay on HN5 tumor cells it was 100 to 1000 nM. The IC50 with HT-29 tumor cells and in the assay on SK-MEL-3 tumor cells was 100 to 1000 nM throughout.

Turning to `O=S(=O)(Nc1cc(-c2nc(N3CCOCC3)sc2-c2ccnc(Nc3ccc4c(c3)OCCO4)n2)ccc1F)c1c(F)cccc1F` [Example 127], the half-inhibitory concentration (IC50) in the assay on BT474 tumor cells was > 1000 nM; in the assay with SK-MEL-28 tumor cells, 100 to 1000 nM; on B-Raf, 100 to 1000 nM; with Colo205 tumor cells, 100 to 1000 nM; in the assay on HN5 tumor cells, > 1000 nM; in the assay on HT-29 tumor cells, > 1000 nM. Further, the “Activity in A375P F11s Tumor Cells” value in the assay with A375P F11s tumor cells was “+ (activity of >1 μM in A375P F11s tumor cells)”. In addition, the “Activity in SK-MEL-3 Tumor Cells” value in the assay on SK-MEL-3 tumor cells was “+ (activity of >1 μM in SK-MEL-3 tumor cells)”.

`CC(C)c1nc(-c2cccc(NS(=O)(=O)c3c(F)cccc3F)c2)c(-c2ccnc(Nc3ccc(N4CCOCC4)c(C(=O)O)c3)n2)s1` [Example 14, 5-({4-[4-(3-{[(2,6-Difluorophenyl)sulfonyl]amino}phenyl)-2-(1-methylethyl)-1,3-thiazol-5-yl]-2-pyrimidinyl}amino)-2-(4-morpholinyl)benzoic acid]: the IC50 in the assay with BT474 tumor cells was > 1000 nM; with SK-MEL-28 tumor cells it was < 100 nM; on B-Raf, < 100 nM; in the assay on A375P F11s tumor cells it was < 100 nM; with Colo205 tumor cells it was < 100 nM; in the assay with HN5 tumor cells, > 1000 nM. The half-maximal inhibitory concentration (IC50) is 100 to 1000 nM in the assay with HT-29 tumor cells and < 100 nM in the assay on SK-MEL-3 tumor cells.

For `CC(C)c1nc(-c2ccc(F)c(NS(=O)(=O)c3ccccc3C#N)c2)c(-c2ccnc(Nc3ccc(N4CCOCC4)nc3)n2)s1` [Example 107], the IC50 was > 1000 nM in the assay on BT474 tumor cells; 100 to 1000 nM with SK-MEL-28 tumor cells; < 100 nM against B-Raf; 100 to 1000 nM in the assay on A375P F11s tumor cells; 100 to 1000 nM with Colo205 tumor cells; > 1000 nM in the assay with HN5 tumor cells. Also, the IC50 with HT-29 tumor cells and with SK-MEL-3 tumor cells was 100 to 1000 nM in each case.

For `CN1CCN(c2nc(-c3ccc(F)c(NS(=O)(=O)c4c(F)cccc4F)c3)c(-c3ccnc(Nc4ccc(N5CCOCC5)nc4)n3)s2)CC1` [Example 126], the IC50 was > 1000 nM in the assay on BT474 tumor cells; < 100 nM with SK-MEL-28 tumor cells; < 100 nM on B-Raf; 100 to 1000 nM in the assay with A375P F11s tumor cells; < 100 nM in the assay on Colo205 tumor cells; 100 to 1000 nM in the assay with HN5 tumor cells. The IC50 in the assay with HT-29 tumor cells and in the assay on SK-MEL-3 tumor cells was 100 to 1000 nM each time.

For `Cc1cc(Nc2nccc(-c3sc(C(C)C)nc3-c3ccc(F)c(NS(=O)(=O)c4c(F)cccc4F)c3)n2)ccn1` [Example 116], the IC50 with BT474 tumor cells is > 1000 nM; with SK-MEL-28 tumor cells, < 100 nM; at B-Raf, < 100 nM; with A375P F11s tumor cells, 100 to 1000 nM; in the assay on Colo205 tumor cells, < 100 nM; in the assay on HN5 tumor cells, > 1000 nM. The IC50 with HT-29 tumor cells and in the assay on SK-MEL-3 tumor cells was 100 to 1000 nM throughout.

As to `CC(C)c1nc(-c2cccc(NS(=O)(=O)c3c(F)cccc3F)c2F)c(-c2ccnc(Nc3ccc(N4CCN(CCF)CC4)c(F)c3)n2)s1` [Example 29, 2,6-Difluoro-N-{2-fluoro-3-[5-[2-({3-fluoro-4-[4-(2-fluoroethyl)-1-piperazinyl]phenyl}amino)-4-pyrimidinyl]-2-(1-methylethyl)-1,3-thiazol-4-yl]phenyl}benzenesulfonamide], the IC50 was > 1000 nM in the assay on BT474 tumor cells; < 100 nM in the assay on SK-MEL-28 tumor cells; < 100 nM on B-Raf; < 100 nM in the assay with A375P F11s tumor cells; < 100 nM in the assay with Colo205 tumor cells; 100 to 1000 nM in the assay with HN5 tumor cells. The results for the IC50 in the assay with HT-29 tumor cells and with SK-MEL-3 tumor cells were 100 to 1000 nM and < 100 nM, respectively.

For `CC(C)c1nc(-c2ccnc(NS(=O)(=O)c3c(F)cccc3F)c2)c(-c2ccnc(Nc3ccc(N4CCOCC4)nc3)n2)s1` [Example 32, 2,6-Difluoro-N-{4-[2-(1-methylethyl)-5-(2-{[6-(4-morpholinyl}-3-pyridinyl]amino}-4-pyrimidinyl)-1,3-thiazol-4-yl]-2-pyridinyl}benzenesulfonamide], the IC50 with BT474 tumor cells was > 1000 nM; in the assay with SK-MEL-28 tumor cells it was < 100 nM; against B-Raf, < 100 nM; in the assay on A375P F11s tumor cells it was < 100 nM; in the assay on Colo205 tumor cells, < 100 nM; in the assay on HN5 tumor cells it was > 1000 nM. The IC50 was > 1000 nM in the assay with HT-29 tumor cells and < 100 nM in the assay on SK-MEL-3 tumor cells.

As to `CC(C)c1nc(-c2cccc(NS(=O)(=O)c3c(F)cccc3F)c2F)c(-c2ccnc(Nc3ccc(N4CCOCC4)nc3)n2)s1` [Example 123], the half-maximal inhibitory concentration (IC50) is > 1000 nM in the assay on BT474 tumor cells; < 100 nM in the assay on SK-MEL-28 tumor cells; < 100 nM at B-Raf; < 100 nM with A375P F11s tumor cells; < 100 nM in the assay on Colo205 tumor cells; 100 to 1000 nM in the assay on HN5 tumor cells. The IC50 with HT-29 tumor cells and in the assay on SK-MEL-3 tumor cells was < 100 nM throughout.

For `CC(=O)N1CCN(c2ccc(Nc3nccc(-c4sc(C(C)C)nc4-c4cccc(NS(=O)(=O)c5ccccc5F)c4)n3)cn2)CC1` [Example 12, N-{3-[5-(2-{[6-(4-Acetyl-1-piperazinyl)-3-pyridinyl]amino}-4-pyrimidinyl)-2-(1-methylethyl)-1,3-thiazol-4-yl]phenyl}-2-fluorobenzenesulfonamide], the half-inhibitory concentration (IC50) in the assay on BT474 tumor cells is > 1000 nM; with SK-MEL-28 tumor cells, < 100 nM; against B-Raf, < 100 nM; in the assay on A375P F11s tumor cells, < 100 nM; in the assay with Colo205 tumor cells it was < 100 nM; in the assay with HN5 tumor cells, 100 to 1000 nM. In addition, the IC50 in the assay with HT-29 tumor cells and with SK-MEL-3 tumor cells was < 100 nM in each case.

On to `CS(=O)(=O)CCN1CCN(c2ccc(Nc3nccc(-c4oc(N5CCCC5)nc4-c4ccc(F)c(NS(=O)(=O)c5c(F)cccc5F)c4)n3)cc2F)CC1` [Example 119], for which the IC50 with BT474 tumor cells was > 1000 nM; in the assay on SK-MEL-28 tumor cells, 100 to 1000 nM; against B-Raf, < 100 nM; in the assay on A375P F11s tumor cells it was 100 to 1000 nM; in the assay with Colo205 tumor cells, 100 to 1000 nM; with HN5 tumor cells it was > 1000 nM. Besides, the IC50 in the assay with HT-29 tumor cells was 100 to 1000 nM.
